# Source: article PMC11676775, “Novel Copper(II) Coordination Compounds Containing Pyridine Derivatives of N^4-Methoxyphenyl-Thiosemicarbazones with Selective Anticancer Activity” (Molecules, 2024)
# Read-outs that look alike come from different tables or passages of the source.
# Tests used:
# MDCK normal cell line = experiment: Cell proliferation resazurin assay, MDCK normal cell line; type: cell-based, canine; settings: 24 h incubation
# Experimental: (§1) The proliferation of HeLa, BxPC-3, RD, and MDCK cells was assessed using resazurin. Triplicate cultures of 1 × 10^4 cells in 100 μL of medium were incubated at 37 °C, 3% CO2, in 96-well plates. Compounds were dissolved in DMSO to form 1 × 10⁻^2 M solutions, then diluted with media and added to wells for a 24 h incubation. Following this, 20 μL of resazurin solution was added and incubated for 4 h. Absorbance was measured at 570 nm and 600 nm.
# (§2) Percentage inhibition was calculated as follows:(2) I (%)=100−Abs570 nmsample−Abs600 nmsample /[…]−Abs600 nmcontrol ×100
# (§3) The formula accounts for absorbance differences at 570 nm and 600 nm to determine cell viability.
# (§4) The half maximal inhibitory concentration (IC50) indicated the effectiveness of the compounds on cell lines, as defined by FDA guidelines as the concentration needed for 50% inhibition in vitro. Toxicity was assessed via the median lethal concentration (LC50), the concentration causing death in 50% of juvenile daphnids, calculated using a dose–response equation via least squares fitting. All data are presented as mean ± standard deviation (SD). Statistical analyses were conducted with specialized software.
# BxPC-3 cancer cell line = experiment: Cell proliferation resazurin assay, BxPC-3; type: cell-based, human; settings: BxPC-3, 24 h incubation
# Experimental: as §1, §2, §3, §4
# RD cancer cell line = experiment: Cell proliferation resazurin assay, RD; type: cell-based, human; settings: 24 h incubation
# Experimental: as §1, §2, §3, §4
# HeLa cancer cell line = experiment: Cell proliferation resazurin assay, HeLa; type: cell-based, human; settings: 24 h incubation
# Experimental: as §1, §2, §3, §4
# HL-60 cancer cell line = experiment: Antiproliferative activity, HL-60; type: cell-based, human
# LNCaP cancer cell line = experiment: Cell proliferation MTT assay, LNCaP; type: cell-based, human; settings: 24 h incubation
# Experimental: (§5) The MTT assay, a colorimetric method, quantifies viable cells to evaluate cytotoxic effects on LNCaP, MCF-7, HepG-2, and K-562 cell lines. It measures the conversion of MTT to insoluble formazan by mitochondrial succinate dehydrogenase in active cells, reflecting cell viability. Compounds were dissolved in saline and DMSO (≤0.1%) and tested at 0.1, 1, and 10 μM concentrations, following Mosmann’s method.
# (§6) Suspension cells were centrifuged, and adherent cells were trypsinized then diluted to 5 × 10⁴ cells/mL in RPMI 1640 with 10% fetal bovine serum. Subsequently, 5 × 10^3 cells in 100 μL were plated in 96-well plates and incubated for attachment. After adding compounds, cells were incubated for 24 h at 37 °C and 3% CO2. MTT reagent was introduced, and cells were monitored for formazan presence under a microscope.
# (§7) Upon observing purple precipitate, detergent reagent was added, and plates were kept in the dark for 4 h. Absorbance was measured at 540 nm using a BioTek reader (Agilent, Santa Clara, CA, USA). Results, indicating percent inhibition, were calculated using the following formula:(3) I (%)=100−Abs540 nmsample /Abs540 nmcontrol ×100
# (§8) IC50 values were determined as a measure of compound efficacy on cancer cell proliferation.
# MCF-7 cancer cell line = experiment: Cell proliferation MTT assay, MCF-7; type: cell-based, human
# Experimental: as §5, §6, §7, §8
# HepG-2 cancer cell line = experiment: Cell proliferation MTT assay, HepG-2; type: cell-based, human
# Experimental: as §5, §6, §7, §8
# K-562 cancer cell line = experiment: Cell proliferation MTT assay, K-562; type: cell-based, human
# Experimental: as §5, §6, §7, §8
# Daphnia magna = experiment: in vivo; settings: pH 7
# Experimental: Toxicity testing for certain substances was conducted using Daphnia magna, following ISO 6341:2012 guidelines. Daphnia magna were cultured parthenogenetically at the Institute of Zoology and fed Chlorella vulgaris grown aseptically. The algal medium included CaCl2, NaHCO3, KCl, and MgSO4·7H2O, with pH adjusted to 7.0 and O2 ≥ 6.00 mg/L. Juvenile daphnids were cultured in 24-well plates, each holding 10 daphnids in 1000 μL of each compound dilution. The bioassay tested concentrations from 0.1 to 100 μM to determine LC50, using doxorubicin as the positive control and a 0.1% DMSO solution as the negative control. The daphnids were incubated at 22 ± 2 °C with a 16 h/8 h light/dark cycle.
# The experiment was conducted in triplicate to ensure accuracy.
# as §4
# [1] = test system: HeLa, RD, and BxPC-3 cancer cell lines; experiment: Antiproliferative activity, summary over HeLa, RD and BxPC-3 cell lines; type: cell-based; settings: Homo sapiens; range over the three cancer cell lines; read-out: IC50 range against HeLa, RD, and BxPC-3 cell lines
# Experimental: as §1, §2, §3, §4
# [2] = Homo sapiens, MCF7, MCF-7, 24 h incubation
# [3] = Homo sapiens, HepG2, HepG-2, 24 h incubation
# [4] = Homo sapiens, K562, K-562, 24 h incubation
# [5] = other: immersion in compound dilution
SMILES,IC50 (BxPC-3 cancer cell line) [nM],IC50 (RD cancer cell line) [nM],IC50 (HeLa cancer cell line) [nM],IC50 (BxPC-3 cancer cell line; Homo sapiens) [nM],IC50 (RD cancer cell line; Homo sapiens) [nM],IC50 (HeLa cancer cell line; Homo sapiens) [nM],IC50 (HL-60 cancer cell line; Homo sapiens) [nM],IC50 (LNCaP cancer cell line; Homo sapiens) [nM],IC50 (MCF-7 cancer cell line; [2]) [nM],IC50 (HepG-2 cancer cell line; [3]) [nM],IC50 (K-562 cancer cell line; [4]) [nM],IC50 (MDCK normal cell line) [nM],IC50 (MDCK normal cell line; Canis lupus familiaris) [nM],LC50 at 24 h (Daphnia magna; [5]) [nM],other results
"COc1ccccc1NC(=NN=Cc1ccccn1)[S][Cu][O][N+](=O)[O-] [C2, [Cu(L^1)NO3]]",100 ± 10,100 ± 10,800 ± 30,,,,,,,,,600 ± 30,,,"IC50 (HL-60 cancer cell line): 30 ± 1 nM; IC50 (LNCaP cancer cell line): 800 ± 30 nM; IC50 (MCF-7 cancer cell line; MCF-7, 24 h incubation): 100 ± 50 nM; IC50 (HepG-2 cancer cell line; HepG-2, 24 h incubation): 400 ± 50 nM; IC50 (K-562 cancer cell line; K-562, 24 h incubation): 500 ± 10 nM"
"COc1cccc2c1C(=O)c1c(O)c3c(c(O)c1C2=O)C[C@@](O)(C(=O)CO)C[C@@H]3O[C@H]1C[C@H](N)[C@H](O)[C@H](C)O1 [DOXO, doxorubicin, reference compound]",,,,6000 ± 100,16200 ± 1400,6200 ± 500,1000 ± 300,1100 ± 20,14000 ± 1500,2800 ± 1100,400 ± 30,,10800 ± 1200,,LC50 at 24 h (Daphnia magna): 3600 nM
"COc1ccc(NC(=NN=Cc2ccccn2)[S][Cu][O][N+](=O)[O-])cc1 [C6, [Cu(L^3)NO3]]",100 ± 40,1200 ± 30,1100 ± 50,,,,,,,,,2100 ± 1500,,,"IC50 (HL-60 cancer cell line): 30 ± 6 nM; IC50 (LNCaP cancer cell line): 300 ± 40 nM; IC50 (MCF-7 cancer cell line; MCF-7, 24 h incubation): 600 ± 30 nM; IC50 (HepG-2 cancer cell line; HepG-2, 24 h incubation): 600 ± 30 nM; IC50 (K-562 cancer cell line; K-562, 24 h incubation): 30 ± 2 nM"
"COc1cccc(NC(=NN=C(C)c2ccccn2)[S][Cu][Cl])c1 [C8, [Cu(L^4)Cl]]",100 ± 70,200 ± 40,100 ± 30,,,,,,,,,1100 ± 60,,,
"COc1cccc(NC(=NN=Cc2ccccn2)[S][Cu][O][N+](=O)[O-])c1 [C4, [Cu(L^2)NO3]]",100 ± 50,100 ± 60,100 ± 10,,,,,,,,,1300 ± 400,,,
"COc1ccc(NC(=S)N/N=C/c2ccccn2)cc1 [HL^3, N-(4-Methoxyphenyl)-2-[(pyridin-2-yl)methylidene] hydrazine-1-carbothioamide]",,,,2100 ± 200,500 ± 40,100000 ± 5900,10 ± 1,100000 ± 4200,100000 ± 4600,52000 ± 10,10000 ± 1600,,100000 ± 4600,35000,IC50 [1]: 500 to 100000 nM

# The next lines start with results.
IC50 (BxPC-3 cancer cell line) [nM],IC50 (RD cancer cell line) [nM],IC50 (HeLa cancer cell line) [nM],IC50 (BxPC-3 cancer cell line; Homo sapiens) [nM],IC50 (RD cancer cell line; Homo sapiens) [nM],IC50 (HeLa cancer cell line; Homo sapiens) [nM],IC50 (HL-60 cancer cell line; Homo sapiens) [nM],IC50 (LNCaP cancer cell line; Homo sapiens) [nM],IC50 (MCF-7 cancer cell line; [2]) [nM],IC50 (HepG-2 cancer cell line; [3]) [nM],IC50 (K-562 cancer cell line; [4]) [nM],SMILES,IC50 (MDCK normal cell line) [nM],IC50 (MDCK normal cell line; Canis lupus familiaris) [nM],LC50 at 24 h (Daphnia magna; [5]) [nM],other results
,,,100 ± 30,11600 ± 500,5800 ± 1200,60 ± 4,100000 ± 3100,55000 ± 2100,3100 ± 300,16000 ± 2200,"COc1cccc(NC(=S)N/N=C(\C)c2ccccn2)c1 [HL^4, N-(3-Methoxyphenyl)-2-[1-(pyridin-2-yl)ethylidene] hydrazine-1-carbothioamide]",,14900 ± 1600,14000,IC50 [1]: 100 to 11000 nM
9400 ± 1200,19700 ± 2400,26100 ± 1200,,,,,,,,,"COc1ccc(NC(=NN=Cc2ccccn2)[S][Cu][Cl])cc1 [C5, [Cu(L^3)Cl]]",26600 ± 2400,,,
100 ± 20,100 ± 10,800 ± 40,,,,,,,,,"COc1ccccc1NC(=NN=Cc1ccccn1)[S][Cu][Cl] [C1, [Cu(L^1)Cl]]",300 ± 20,,,"IC50 (HL-60 cancer cell line): 35000 ± 2100 nM; IC50 (LNCaP cancer cell line): 45000 ± 2100 nM; IC50 (MCF-7 cancer cell line; MCF-7, 24 h incubation): 100000 ± 4200 nM; IC50 (HepG-2 cancer cell line; HepG-2, 24 h incubation): 68000 ± 4200 nM; IC50 (K-562 cancer cell line; K-562, 24 h incubation): 64000 ± 1400 nM"
,,,3200 ± 300,500 ± 60,100000 ± 4200,20 ± 6,8100 ± 1200,5200 ± 600,300 ± 10,100 ± 10,"COc1cccc(NC(=S)N/N=C(/c2ccccc2)c2ccccn2)c1 [HL^5, N-(3-Methoxyphenyl)-2-[phenyl (pyridin-2-yl)methylidene] hydrazine-1-carbothioamide]",,100000 ± 3800,45000,IC50 [1]: 500 to 100000 nM
,,,100 ± 50,100000 ± 4200,81200 ± 5300,40 ± 6,100000 ± 4900,10000 ± 1200,800 ± 40,10000 ± 1200,"COc1ccccc1NC(=S)N/N=C/c1ccccn1 [HL^1, N-(2-Methoxyphenyl)-2-[(pyridin-2-yl)methylidene] hydrazine-1-carbothioamide]",,10100 ± 1200,15000,
11200 ± 1300,4600 ± 600,30900 ± 1200,,,,,,,,,"[NH2][Pt]([NH2])([Cl])[Cl] [CDDP, cisplatin, reference compound]",1500 ± 300,,,
200 ± 50,500 ± 60,100 ± 40,,,,,,,,,"COc1cccc(NC(=NN=C(C)c2ccccn2)[S][Cu][O][N+](=O)[O-])c1 [C7, [Cu(L^4)NO3]]",900 ± 40,,,
,,,100 ± 40,200 ± 30,100 ± 10,10 ± 4,900 ± 50,3500 ± 500,600 ± 60,900 ± 50,"COc1cccc(NC(=S)N/N=C/c2ccccn2)c1 [HL^2, N-(3-Methoxyphenyl)-2-[(pyridin-2-yl)methylidene] hydrazine-1-carbothioamide]",,400 ± 60,13000,IC50 [1]: 100 to 200 nM
